These results are taken from patent publication US20140358576A1, “SYSTEM AND METHOD FOR SURVEILLANCE AND EVALUATION OF SAFETY RISKS ASSOCIATED WITH MEDICAL INTERVENTIONS” (Adverse Events, Inc., priority 2013, published 2014).

SMILES strings stand for the structures. Where a name gives a salt, the structure may show the parent alone. Numbered stars: 1 amine (or outer) side, 2 acyl side, 3 side chain; on linkers, the order of the positions; unused ones are H or OH. Bridge positions count the residues as written; N and C are the ends. Square brackets hold non-standard residues; d marks the D form. Peptide text beside a SMILES is read from it. * marks the point of attachment. hTyr(3S-OH,4S-OH,3'-OSO3H) = N[C@H](C(=O)O)[C@H](O)[C@@H](O)c1ccc(O)c(OS(=O)(=O)O)c1; Orn(4R-OH,5R-OH) = O=C([C@H](C[C@@H](O)[C@@H](O)N[*:3])N[*:1])[*:2]; Pro(3S-OH,4S-Me) = C[C@H]1CN[C@H](C(=O)O)[C@H]1O; X1 = CCCCCOc1ccc(-c2cc(-c3ccc(C(=O)*)cc3)no2)cc1; Gln(3R-OH) = NC(=O)C[C@@H](O)[C@H](N)C(=O)O; Hyp = O=C(O)[C@@H]1C[C@@H](O)CN1

The conditions of the first data set: human.
On to `O=C1NC(c2ccccc2)(c2ccccc2)C(=O)N1COP(=O)(O)O` [fosphenytoin sodium], for which the “Adverse Event Seriousness” value stood at 8.16, the Outcome turned out to be 15.85, the ROR is on record as 5.09 and the RxScore is recorded as 46.69.

Consider `CC(OC(=O)NCC1(CC(=O)O)CCCCC1)OC(=O)C(C)C` (centres unmarked) [gabapentin enacarbil], for which the “Adverse Event Seriousness” value is recorded as 4.67, the Outcome was determined as 7.53, the ROR was found to be 2.64 and the RxScore turned out to be 42.19.

As to `NCC1(CC(=O)O)CCCCC1` [gabapentin], the “Adverse Event Seriousness” value is reported as 9.67, the Outcome was determined as 11.51, the ROR stood at 2.86 and the RxScore is on record as 43.00.

In turn, `CCCCCC(=O)O[C@]1(C(C)=O)CC[C@H]2[C@@H]3CCC4=CC(=O)CC[C@]4(C)[C@H]3CC[C@@]21C` [hydroxyprogesterone caproate] gave an ROR of 12.09.

Take `CCCCCN(C)CCC(O)(P(=O)(O)O)P(=O)(O)O` [ibandronate sodium]: the “Adverse Event Seriousness” value is 10.42, the Outcome is 13.02, the ROR was found to be 3.13 and the RxScore is recorded as 45.79.

As for `Nc1nnc(-c2cccc(Cl)c2Cl)c(N)n1` [lamotrigine], the “Adverse Event Seriousness” value was determined as 8.89, the Outcome amounted to 10.41, the ROR is recorded as 3.57 and the RxScore was 42.04.

For the compound `CC(=O)O[C@]1(C(C)=O)CC[C@H]2[C@@H]3C[C@H](C)C4=CC(=O)CC[C@]4(C)[C@H]3CC[C@@]21C` [medroxyprogesterone acetate], the “Adverse Event Seriousness” value came to 19.89 and the ROR is 12.89.

On to `CN[C@@H](C)Cc1ccccc1` [methamphetamine hydrochloride], for which the “Adverse Event Seriousness” value is 15.73, the Outcome worked out at 20.20, the ROR was 12.29 and the RxScore was found to be 78.80.

As to `COC(=O)C(c1ccccc1)C1CCCCN1` (centres unmarked) [methylphenidate], the ROR turned out to be 13.69.

Compound `CCCCCOc1ccc(-c2cc(-c3ccc(C(=O)N[C@H]4C[C@@H](O)[C@@H](O)NC(=O)[C@@H]5[C@@H](O)[C@@H](C)CN5C(=O)[C@H]([C@H](O)CC(N)=O)NC(=O)[C@H]([C@H](O)[C@@H](O)c5ccc(O)c(OS(=O)(=O)O)c5)NC(=O)[C@@H]5C[C@@H](O)CN5C(=O)[C@H]([C@@H](C)O)NC4=O)cc3)no2)cc1` [micafungin sodium] (X1-[Orn(4R-OH,5R-OH)]T[Hyp][hTyr(3S-OH,4S-OH,3'-OSO3H)][Gln(3R-OH)][Pro(3S-OH,4S-Me)]; lactam 1-C) returned an Outcome of 22.48.

As for `O=C1CCCC(=O)C1C(=O)c1ccc(C(F)(F)F)cc1[N+](=O)[O-]` [nitisinone], the “Adverse Event Seriousness” value came to 15.20, the Outcome is reported as 23.09, the ROR is 5.32 and the RxScore turned out to be 74.78.

For `[N]=O` [nitric oxide], the “Adverse Event Seriousness” value turned out to be 19.58.

On to `NCCC(O)(P(=O)(O)O)P(=O)(O)O` [pamidronate disodium], for which the “Adverse Event Seriousness” value came out at 12.75, the Outcome is listed as 6.73, the ROR stood at 11.49 and the RxScore is listed as 51.86.

As for `N#Cc1ccccc1-c1cc(-c2ccccn2)cn(-c2ccccc2)c1=O` [perampanel], the “Adverse Event Seriousness” value is given as 7.92, the Outcome is given as 14.67, the ROR is listed as 3.53 and the RxScore is reported as 47.40.

Consider `CC(C)(N)Cc1ccccc1` [phentermine], for which the ROR worked out at 12.22.

As for `O=C1NC(=O)C(c2ccccc2)(c2ccccc2)N1` [phenytoin sodium], the “Adverse Event Seriousness” value was determined as 8.38, the Outcome is given as 12.65, the ROR is 5.12 and the RxScore amounted to 44.47.

`Nc1cccc2c1C(=O)N(C1CCC(=O)NC1=O)C2=O` (centres unmarked) [pomalidomide] registered an Outcome of 25.31.

Regarding `CC(C)C[C@H](CN)CC(=O)O` [pregabalin], the “Adverse Event Seriousness” value is listed as 7.13, the Outcome came to 8.25, the ROR was found to be 2.21 and the RxScore is on record as 36.30.

Take `CCC1(c2ccccc2)C(=O)NCNC1=O` [primidone]: the “Adverse Event Seriousness” value came to 8.70, the Outcome was determined as 10.86, the ROR is listed as 3.59 and the RxScore turned out to be 42.07.

As for `C=C[C@]1(C)C[C@@H](OC(=O)CS[C@@H]2C[C@H]3CC[C@@H](C2)N3C)[C@]2(C)[C@H](C)CC[C@]3(CCC(=O)[C@H]32)[C@@H](C)[C@@H]1O` [retapamulin], the ROR worked out at 12.35.

Turning to `CN1C(=O)C(O)N=C(c2ccccc2)c2cc(Cl)ccc21` (centres unmarked) [temazepam], the “Adverse Event Seriousness” value worked out at 12.79, the Outcome is reported as 22.08, the ROR was 5.17 and the RxScore turned out to be 72.69.

`O=C1CCC(N2C(=O)c3ccccc3C2=O)C(=O)N1` (centres unmarked) [thalidomide]: the “Adverse Event Seriousness” value stood at 17.30 and the Outcome was 22.64.

For `Cc1ccsc1C(=CCCN1CCC[C@@H](C(=O)O)C1)c1sccc1C` [tiagabine hydrochloride], the “Adverse Event Seriousness” value was found to be 10.82, the Outcome was 12.04, the ROR worked out at 6.41 and the RxScore is 48.70.

Turning to `CC1(C)O[C@@H]2[C@@H](CO[C@@]3(COS(N)(=O)=O)OC(C)(C)O[C@@H]23)O1` [topiramate], the “Adverse Event Seriousness” value was determined as 11.28, the Outcome came to 11.96, the ROR is listed as 4.29 and the RxScore worked out at 47.54.

For the compound `CCCC(CCC)C(=O)[O-].[Na+]` [valproate sodium], the “Adverse Event Seriousness” value was determined as 10.26, the Outcome is reported as 13.09, the ROR was 5.64 and the RxScore is 48.83.

`CCCC(CCC)C(=O)O` [valproic acid]: the “Adverse Event Seriousness” value amounted to 12.54, the Outcome was determined as 16.41, the ROR came to 5.34 and the RxScore worked out at 54.78.

On to `C=CC(N)CCC(=O)O` (centres unmarked) [vigabatrin], for which the “Adverse Event Seriousness” value was 13.32, the Outcome is given as 13.81, the ROR was 4.80 and the RxScore stood at 51.42.

For the compound `O=P(O)(O)C(O)(Cn1ccnc1)P(=O)(O)O` [zoledronic acid (Reclast), zoledronic acid], the “Adverse Event Seriousness” value worked out at 12.33, the Outcome is given as 16.89, the ROR stood at 3.53 and the RxScore stood at 53.23.

Take `O=P(O)(O)C(O)(Cn1ccnc1)P(=O)(O)O` [zoledronic acid (Zometa), zoledronic acid]: the “Adverse Event Seriousness” value is reported as 14.61, the Outcome is 7.55, the ROR amounted to 10.08 and the RxScore worked out at 53.50.

Consider `NS(=O)(=O)Cc1noc2ccccc12` [zonisamide], for which the “Adverse Event Seriousness” value worked out at 11.03, the Outcome is recorded as 13.71, the ROR was found to be 4.73 and the RxScore was 49.83.

The conditions of another data set: Example 1 component score, up to 8.68 points.
For the compound `NCCCC(O)(P(=O)(O)O)P(=O)(O)O` [alendronate], the “Condition Seriousness” value was 7.02.

On to `COc1ccccc1Oc1c(NS(=O)(=O)c2ccc(C(C)(C)C)cc2)nc(-c2ncccn2)nc1OCCO` [bosentan], for which the “Condition Seriousness” value came to 2.07.

Take `CS(=O)(=O)OCCCCOS(C)(=O)=O` [busulfan]: the “Condition Seriousness” value amounted to 2.52.

`CCN(CC)CCNC(=O)c1cc(Cl)c(N)cc1OC` [metoclopramide]: the “Condition Seriousness” value was found to be 7.15.

As to `CN(CCOc1ccc(CC2SC(=O)NC2=O)cc1)c1ccccn1` (centres unmarked) [rosiglitazone], the “Condition Seriousness” value is 3.77.

Consider `C=CC[C@@H]1/C=C(\C)C[C@H](C)C[C@H](OC)[C@H]2O[C@@](O)(C(=O)C(=O)N3CCCC[C@H]3C(=O)O[C@H](/C(C)=C/[C@@H]3CC[C@@H](O)[C@H](OC)C3)[C@H](C)[C@@H](O)CC1=O)[C@H](C)C[C@@H]2OC` [tacrolimus], for which the “Condition Seriousness” value came to 3.13.

Turning to `CCCCC[C@H](O)CC[C@@H]1[C@H]2Cc3cccc(OCC(=O)O)c3C[C@H]2C[C@H]1O` [treprostinil], the “Condition Seriousness” value was 4.00.

The same data set, now with this note: human.
Regarding `NCCCC(O)(P(=O)(O)O)P(=O)(O)O` [alendronate], the Literature amounted to 5.0.

Turning to `COc1ccccc1Oc1c(NS(=O)(=O)c2ccc(C(C)(C)C)cc2)nc(-c2ncccn2)nc1OCCO` [bosentan], the ROR is listed as 3.81 and the RxScore was found to be 81.44.

`CS(=O)(=O)OCCCCOS(C)(=O)=O` [busulfan]: the “Adverse Event Seriousness” value is given as 14.67, the Literature is listed as 12.5, the Outcome is 15.73 and the ROR is 7.15. In addition, the RxScore is listed as 86.04.

Consider `Nc1nc(F)nc2c1ncn2[C@@H]1O[C@H](CO)[C@@H](O)[C@@H]1O` [fludarabine], for which the “Adverse Event Seriousness” value came out at 12.69, the Literature was determined as 12.5, the Outcome turned out to be 15.34 and the ROR is on record as 4.60. Further, the RxScore was 78.34.

Regarding `CCC(=O)C(CC(C)N(C)C)(c1ccccc1)c1ccccc1` (centres unmarked) [methadone], the Literature was 18.8 and the ROR is on record as 4.85.

In the case of `CCN(CC)CCNC(=O)c1cc(Cl)c(N)cc1OC` [metoclopramide], the “Adverse Event Seriousness” value amounted to 4.46, the Literature is reported as 12.5, the Outcome stood at 15.38 and the ROR was 12.97. This compound returned a RxScore of 78.08.

`CN1CC[C@]23c4c5ccc(O)c4O[C@H]2C(=O)CC[C@@]3(O)[C@H]1C5` [oxymorphone]: the “Adverse Event Seriousness” value was found to be 6.21, the Literature turned out to be 18.8, the Outcome is recorded as 10.33 and the ROR amounted to 3.98. This compound also came in with a RxScore of 77.03.

For `CN(CCOc1ccc(CC2SC(=O)NC2=O)cc1)c1ccccn1` (centres unmarked) [rosiglitazone], the Literature is 12.5, the Outcome amounted to 12.18, the ROR is recorded as 5.53 and the RxScore is on record as 79.48.

In the case of `C=CC[C@@H]1/C=C(\C)C[C@H](C)C[C@H](OC)[C@H]2O[C@@](O)(C(=O)C(=O)N3CCCC[C@H]3C(=O)O[C@H](/C(C)=C/[C@@H]3CC[C@@H](O)[C@H](OC)C3)[C@H](C)[C@@H](O)CC1=O)[C@H](C)C[C@@H]2OC` [tacrolimus], the “Adverse Event Seriousness” value is reported as 14.77, the Literature is 9.3, the Outcome is 15.75 and the ROR turned out to be 4.09. Further, the RxScore is 78.26.

Compound `CCCCC[C@H](O)CC[C@@H]1[C@H]2Cc3cccc(OCC(=O)O)c3C[C@H]2C[C@H]1O` [treprostinil] came in with a Literature of 0.0.
